Data from patent US20230407098A1, “METHOD FOR EVALUATING CYSTINE UPTAKE ABILITY OF CELL, KIT FOR EVALUATING CYSTINE UPTAKE ABILITY OF CELL, METHOD FOR DETERMINING SELENOCYSTEINE, AND KIT FOR DETERMINING SELENOCYSTEINE” (DOJINDO LABORATORIES, priority 2021, published 2023).

How the values were obtained:
HeLa cells = experiment: Ability to take selenocystine into cells (FOdA/TCEP fluorescence measurement); format: cell-based, human; conditions: selenocystine at concentrations in cystine-free DMEM, 30 minutes, FIG. 2
Procedure: DMEM (cystine-free) was added to HeLa cells, and the cells were incubated in a CO2 incubator (37° C.) for 5 minutes. After the removal of the supernatant, DMEM (cystine-free) containing selenocystine at concentrations was added, and the cells were incubated in the CO 2 incubator (37° C.) for 30 minutes. After removing the supernatant, the cells were washed with PBS three times and then lysed with methanol. Then, 100 mM MES at a pH of 6 containing 10 μM FOdA and 200 μM TCEP was added, and the mixture was incubated at 37° C. for 30 minutes. The fluorescence intensity of each solution was then measured with a plate reader (Infinite(R) 200 PRO, excitation wavelength: 485 nm, fluorescence wavelength: 535 nm).

cystine transporter = biological target: T1, cystine transporter (Homo sapiens, UniProt Q9UPY5); experiment: Inhibition of selenocystine uptake by cystine transporter inhibitor; format: cell-based; conditions: HeLa cells, with cystine transporter inhibitor (sulfasalazine or erastin); FIG. 3
T1 construct: endogenous in cells; host or cells: HeLa cells
T1 sequence (Q9UPY5 1-501): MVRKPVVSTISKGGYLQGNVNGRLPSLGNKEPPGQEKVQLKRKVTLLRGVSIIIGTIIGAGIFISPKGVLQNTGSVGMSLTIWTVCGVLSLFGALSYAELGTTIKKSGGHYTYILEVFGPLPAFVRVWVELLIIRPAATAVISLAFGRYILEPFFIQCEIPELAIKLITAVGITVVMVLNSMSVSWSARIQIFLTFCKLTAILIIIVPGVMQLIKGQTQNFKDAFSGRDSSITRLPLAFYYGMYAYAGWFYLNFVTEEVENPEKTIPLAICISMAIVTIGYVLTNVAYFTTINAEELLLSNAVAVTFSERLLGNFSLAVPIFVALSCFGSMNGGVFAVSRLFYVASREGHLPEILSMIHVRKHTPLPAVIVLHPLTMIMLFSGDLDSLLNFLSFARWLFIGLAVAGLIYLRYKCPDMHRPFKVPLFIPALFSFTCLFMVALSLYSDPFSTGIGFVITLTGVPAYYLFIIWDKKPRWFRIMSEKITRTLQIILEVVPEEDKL
T1 sequence (P08195 1-529 partner): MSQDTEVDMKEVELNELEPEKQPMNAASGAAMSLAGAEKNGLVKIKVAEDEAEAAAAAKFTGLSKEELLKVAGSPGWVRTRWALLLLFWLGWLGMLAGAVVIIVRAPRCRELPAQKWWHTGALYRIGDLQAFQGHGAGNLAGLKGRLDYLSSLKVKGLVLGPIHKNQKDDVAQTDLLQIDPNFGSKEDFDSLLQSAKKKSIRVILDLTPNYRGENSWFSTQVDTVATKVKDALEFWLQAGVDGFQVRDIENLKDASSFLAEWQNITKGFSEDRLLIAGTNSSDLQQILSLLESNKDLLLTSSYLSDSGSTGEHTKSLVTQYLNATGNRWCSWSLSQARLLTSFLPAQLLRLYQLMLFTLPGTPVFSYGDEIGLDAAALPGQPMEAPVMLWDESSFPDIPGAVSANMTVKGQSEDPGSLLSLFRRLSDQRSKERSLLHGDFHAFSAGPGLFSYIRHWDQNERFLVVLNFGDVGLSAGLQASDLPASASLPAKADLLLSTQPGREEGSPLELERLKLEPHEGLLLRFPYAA
Procedure: DMEM (cystine-free) containing a cystine transporter inhibitor (sulfasalazine or erastin) was added to HeLa cells, and the cells were incubated in the CO2 incubator (37° C.) for 5 minutes. DMEM (cystine-free) containing 200 μM selenocystine was then added, and the cells were incubated in the CO2 incubator (37° C.) for 30 minutes. After removing the supernatant, the cells were washed with PBS three times and lysed with methanol. Then, 100 mM MES at a pH of 6 containing 10 μM FOdA and 200 μM TCEP was added, and the cells were incubated at 37° C. for 30 minutes. The fluorescence intensity of each solution was then measured with a plate reader (Infinite(R) 200 PRO, excitation wavelength: 485 nm, fluorescence wavelength: 535 nm).

`N[C@@H](C[Se][Se]C[C@H](N)C(=O)O)C(=O)O` [selenocystine] was tested, and the “fluorescence intensity (selenocystine taken up by the cells)” value (HeLa cells) was “increased depending on the concentration of selenocystine” and the “route of selenocystine uptake” value (cystine transporter) was “taken through cystine transporter”.
